Data: ChEMBL document CHEMBL1150287

Molecular target: Sodium-dependent serotonin transporter (Homo sapiens) (UniProt P31645)
Settings: COS-7, at 100 nM
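Further: measures inhibition of [3H]5-hydroxytryptamine uptake through human SERT expressed in COS-7 cells.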
Description: Inhibition of [3H]5-hydroxytryptamine reuptake at human SERT expressed in african green monkey COS7 cells at 100 nM

Chain of Sodium-dependent serotonin transporter (Homo sapiens) (P31645 whole entry, looked up): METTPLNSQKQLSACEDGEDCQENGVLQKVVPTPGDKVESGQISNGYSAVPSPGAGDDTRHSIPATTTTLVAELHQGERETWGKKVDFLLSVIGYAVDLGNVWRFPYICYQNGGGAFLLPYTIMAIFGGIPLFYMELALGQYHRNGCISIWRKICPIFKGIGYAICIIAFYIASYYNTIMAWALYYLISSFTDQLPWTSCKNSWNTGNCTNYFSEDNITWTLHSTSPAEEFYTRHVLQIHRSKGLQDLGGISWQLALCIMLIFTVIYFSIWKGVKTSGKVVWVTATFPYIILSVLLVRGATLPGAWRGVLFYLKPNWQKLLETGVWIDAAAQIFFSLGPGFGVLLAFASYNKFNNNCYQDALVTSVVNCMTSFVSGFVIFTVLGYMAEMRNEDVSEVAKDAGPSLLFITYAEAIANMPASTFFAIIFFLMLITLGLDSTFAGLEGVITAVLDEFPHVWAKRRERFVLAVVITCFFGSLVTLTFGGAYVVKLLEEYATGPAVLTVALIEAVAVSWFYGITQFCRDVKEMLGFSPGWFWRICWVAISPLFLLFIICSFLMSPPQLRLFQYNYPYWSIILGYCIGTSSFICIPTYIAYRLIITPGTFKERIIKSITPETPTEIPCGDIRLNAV

Row | inhibition [%] | SMILES
1 | 26.6 | CN(C)CCCC1(c2ccc(F)cc2)OCc2ccccc21 (stereo unspecified)
2 | 3.89 | CNCCCC1(c2ccc(F)cc2)OC(C)(C)c2ccccc21 (stereo unspecified)
3 | 53.9 | CNCCCC1(c2ccccc2)OCc2cc(C#N)ccc21 (stereo unspecified)
4 | 0.69 | CN(C)CCCC1(c2ccccc2)OC(C)(C)c2cc(C#N)ccc21 (stereo unspecified)
5 | 9.76 | CNCCCC1(c2ccccc2)OCc2ccccc21 (stereo unspecified)
6 | 8.66 | CN(C)CCCC1(c2ccccc2)OCc2ccccc21 (stereo unspecified)
7 | 7.23 | CNCCCC1(c2ccccc2)OC(C)(C)c2cc(C#N)ccc21 (stereo unspecified)
8 | 12.8 | CNCCC(Oc1ccccc1OC)c1ccccc1 (stereo unspecified)
9 | 1.65 | CNCCCC1(c2ccccc2)OC(C)(C)c2ccccc21 (stereo unspecified)
10 | 55.5 | CNCCCC1(c2ccc(F)cc2)OCc2cc(C#N)ccc21 (stereo unspecified)
11 | 0.31 | CN(C)CCCC1(c2ccccc2)OC(C)(C)c2ccccc21 (stereo unspecified)
12 | 6.56 | CNCCCC1(c2ccc(F)cc2)OC(C)(C)c2cc(C#N)ccc21 (stereo unspecified)
13 | 20.8 | CNCCCC1(c2ccc(F)cc2)OCc2ccccc21 (stereo unspecified)
14 | 0.71 | CN(C)CCCC1(c2ccc(F)cc2)OC(C)(C)c2ccccc21 (stereo unspecified)
15 | 27.4 | CN(C)CCCC1(c2ccccc2)OCc2cc(C#N)ccc21 (stereo unspecified)
16 | 0.74 | CN(C)CCCC1(c2ccc(F)cc2)OC(C)(C)c2cc(C#N)ccc21 (stereo unspecified)
